Test results from patent US20250034182A1, “PHOSPHOLIPID COMPOUNDS AND METHODS OF MAKING AND USING THE SAME” (priority 2021, published 2025).

Legend:
Format in all cases: cell-based
[1] = RSV HEP2-CC50-384-V2 (per Ex. V); settings: human
[2] = test system: Human Rhinovirus 14 (HRV14) in H1-HeLa cells; test: H1-HeLa HRV-CTG EC50, HRV14 (Example Z); settings: Rhinovirus B, HRV14, 96 h, MOI 1.0, 4 days, Celltiter-Glo, read-out: HRV14 HELA EC50 (nM) (per Ex. Z)
Source text: (§1) H1-Hela cell line (ATCC, Manassas, VA, Cat #CRL-1958) was maintained in Dulbecco's […] (DMEM) (Corning, New York, NY, Cat #15-018CM) supplemented with 10% fetal bovine serum (FBS) (Hyclone, Logan, UT, Cat #SH30071-03), and 1× Penicillin-Streptomycin-L-Glutamine (Coming, New York, NY, Cat #30-009-C1). Cells were passaged 2 times per week to maintain sub-confluent densities and were used for experiments at passage 5-30. The Human Rhinovirus 1B (HRV1B) (ATCC, Manassas, VA, Cat #VR-1645), Human Rhinovirus 14 (HRV14) (ATCC, Manassas, VA, Cat #VR-284), and Human Rhinovirus 16 (HRV16) (ATCC, Manassas, VA, Cat #BR-283) was obtained through ATCC. Viral infection was monitored by determining viability of H1-HeLa cells as described below.
(§2) Test molecules are prepared in 100% DMSO in 384-well polypropylene plates (Greiner, Monroe, NC, Cat #784201) with 8 compounds per plate in grouped replicates of 4 at 10 serially diluted concentrations (1:3). The serially diluted compounds were transferred to low dead volume Echo plates (Labcyte, Sunnyvale, CA, Cat #LP-0200).
(§3) The test compounds were spotted to 384-well assay plates (Greiner, Monroe, NC, Cat #781091) at 200 nL per well using an Echo acoustic dispenser (Labcyte, Sunnyvale, CA). H1-HeLa cells were harvested and suspended in DMEM (supplemented with 2% FBS and 1× Penicillin-Streptomycin-L-Glutamine) and seeded to the pre-spotted assay plates at 5,000 cells per well in 30 μL. HRV1B, HRV14, and HRV16 was diluted in DMEM (supplemented with 2% FBS and 1× Penicillin-Streptomycin-L-Glutamine) at 97.1 million Infectious Units (IU) per mL, 151 million IU per mL and 221 million IU per mL respectively. 10 μL of virus per well was added to the assay plates containing cells and compounds, for an MOI of 0.5, 1.0, and 0.25 respectively. The assay plates were incubated for 4 days at 37° C. and 5% CO2. At the end of incubation, Celltiter-Glo (Promega, Madison, WI, Cat #G7573) was prepared. The assay plates and Celltiter-Glo reagent were equilibrated to room temperature for at least 15 minutes. 40 μL per well of Celltiter-Glo reagent was added and the plates were incubated at room temperature for 15 minutes before reading the luminescence signal on an EnVision multimode plate reader (Perkin Elmer, Waltham, MA). Rupintrivir was used as positive control and DMSO was used as negative control. Values were normalized to the positive and negative controls (as 0% and 100% replication, respectively) and data was fitted using non-linear regression analysis by Gilead's dose response tool. The EC50 value for each compound was defined as the concentration reducing viral replication by 50%.

[3] = test system: Human Rhinovirus 16 (HRV16) in H1-HeLa cells; test: H1-HeLa HRV-CTG EC50, HRV16 (Example Z); settings: Rhinovirus A, HRV16, 96 h, MOI 0.25, 4 days, Celltiter-Glo, read-out: HRV 16 HELA EC50 (nM) (per Ex. Z)
Source text: as §1, §2, §3

[4] = test system: Human Rhinovirus 1B (HRV1B) in H1-HeLa cells; test: H1-HeLa HRV-CTG EC50, HRV1B (Example Z); settings: Rhinovirus A, 96 h, MOI 0.5, 4 days, Celltiter-Glo, read-out: HRV 1B HELA EC50 (nM) (per Ex. Z)
Source text: as §1, §2, §3

[5] = test system: Respiratory syncytial virus recombinant with luciferase (RSV-Luc5) in HEp-2 cells; test: HEp-2 RSV-Luc5 384-well assay (EC50 RSVFLUC Hep2-384 v2, Example V); settings: human respiratory syncytial virus, HEp-2, 72 h, read-out: RSV Hep-2 FLuc EC50 (v2) (nM) (per Ex. V)
Summary of the method: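 HEp-2 cells (4,000/well) infected with RSV-Luc5 at MOI 0.5 in DMEM/10% FBS with compound, 10-point 1:3 dilutions, 3 days at 37 °C. Replication read by One-Glo luminescence, normalized to remdesivir (0%) and DMSO (100%). EC50 from non-linear regression as concentration giving 50% reduction.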

SMILES	CC50 at 3 days [1] [nM]	EC50 [2] [nM]	EC50 [3] [nM]	EC50 [4] [nM]	EC50 [5] [nM]
CCCCCCCCCCCCCCCCCCOC[C@H](COP(=O)(O)OC[C@@]1(C#N)O[C@@H](c2ccc3c(N)ncnn23)[C@H](O)[C@@H]1O)OCc1cc(F)cc(C#N)c1 [Compound 1, ((2R,3S,4R,5S)-5-(4-aminopyrrolo[2,1-f][1,2,4]triazin-7-yl)-2-cyano-3,4-dihydroxytetrahydrofuran-2-yl)methyl ((R)-2-((3-cyano-5-fluorobenzyl)oxy)-3-(octadecyloxy)propyl) hydrogen phosphate]	> 31200	8	8	4	229
CCCCCCCCCCCCCCCCCCOC[C@H](COP(=O)(O)OC[C@@]1(C#N)O[C@@H](c2ccc3c(N)ncnn23)[C@H](O)[C@@H]1O)OCc1ccc(C#N)c(Cl)c1 [Compound 7, ((2R,3S,4R,5S)-5-(4-aminopyrrolo[2,1-f][1,2,4]triazin-7-yl)-2-cyano-3,4-dihydroxytetrahydrofuran-2-yl)methyl ((R)-2-((3-chloro-4-cyanobenzyl)oxy)-3-(octadecyloxy)propyl) hydrogen phosphate]	> 49900	50	40	38	284
CCCCCCCCCCCCCCCCCCOC[C@H](COP(=O)(O)OC[C@@]1(C#N)O[C@@H](c2ccc3c(N)ncnn23)[C@H](O)[C@@H]1O)OCc1ccc(C#N)c(-n2cncn2)c1 [Compound 16, ((2R,3S,4R,5S)-5-(4-aminopyrrolo[2,1-f][1,2,4]triazin-7-yl)-2-cyano-3,4-dihydroxytetrahydrofuran-2-yl)methyl ((R)-2-((4-cyano-3-(1H-1,2,4-triazol-1-yl)benzyl)oxy)-3-(octadecyloxy)propyl) hydrogen phosphate]	> 41500	11	10	5	36
CCCCCCCCCCCCCCCCCCOC[C@H](COP(=O)(O)OC[C@@]1(C#N)O[C@@H](c2ccc3c(N)ncnn23)[C@H](O)[C@@H]1O)Oc1cccc(C#N)n1 [Compound 21, ((2R,3S,4R,5S)-5-(4-aminopyrrolo[2,1-f][1,2,4]triazin-7-yl)-2-cyano-3,4-dihydroxytetrahydrofuran-2-yl)methyl ((R)-2-((6-cyanopyridin-2-yl)oxy)-3-(octadecyloxy)propyl) hydrogen phosphate]	39700	60	50	35	222
CCCCCCCCCCCCCCCCCCOC[C@H](COP(=O)(O)OC[C@@]1(C#N)O[C@@H](c2ccc3c(N)ncnn23)[C@H](O)[C@@H]1O)Oc1ccc(C#N)c(OC(C)C)c1 [Compound 23, ((2R,3S,4R,5S)-5-(4-aminopyrrolo[2,1-f][1,2,4]triazin-7-yl)-2-cyano-3,4-dihydroxytetrahydrofuran-2-yl)methyl ((R)-2-(4-cyano-3-isopropoxyphenoxy)-3-(octadecyloxy)propyl) hydrogen phosphate]	> 42000	9	7	4	71
CCCCCCCCCCCCCCCCCCC[C@H](COP(=O)(O)OC[C@@]1(C#N)O[C@@H](c2ccc3c(N)ncnn23)[C@H](O)[C@@H]1O)OCc1cc(F)cc(C#N)c1 [Compound 25, ((2R,3S,4R,5S)-5-(4-aminopyrrolo[2,1-f][1,2,4]triazin-7-yl)-2-cyano-3,4-dihydroxytetrahydrofuran-2-yl)methyl ((R)-2-((3-cyano-5-fluorobenzyl)oxy)henicosyl) hydrogen phosphate]	> 50000	103	99	45	2920
CCCCCCCCCCCCCCCCCCC[C@H](COP(=O)(O)OC[C@@]1(C#N)O[C@@H](c2ccc3c(N)ncnn23)[C@H](O)[C@@H]1O)OCc1ccc(C#N)c(OC(C)C)c1 [Compound 28, ((2R,3S,4R,5S)-5-(4-aminopyrrolo[2,1-f][1,2,4]triazin-7-yl)-2-cyano-3,4-dihydroxytetrahydrofuran-2-yl)methyl ((R)-2-((4-cyano-3-isopropoxybenzyl)oxy)henicosyl) hydrogen phosphate]	30600	47	51	36	353
CCCCCCCCCCCCCCCCCCC[C@H](COP(=O)(O)OC[C@@]1(C#N)O[C@@H](c2ccc3c(N)ncnn23)[C@H](O)[C@@H]1O)OCc1ccc(-n2cncn2)c(C#N)c1 [Compound 30, ((2R,3S,4R)-5-(4-aminopyrrolo[2,1-f][1,2,4]triazin-7-yl)-2-cyano-3,4-dihydroxytetrahydrofuran-2-yl)methyl ((R)-2-((3-cyano-4-(1H-1,2,4-triazol-1-yl)benzyl)oxy)henicosyl) hydrogen phosphate]	33100	12	11	7	115
CCCCCCCCCCCCCCCCCCCC[C@H](COP(=O)(O)OC[C@@]1(C#N)O[C@@H](c2ccc3c(N)ncnn23)[C@H](O)[C@@H]1O)OCc1cc(F)cc(C#N)c1 [Compound 34, ((2R,3S,4R)-5-(4-aminopyrrolo[2,1-f][1,2,4]triazin-7-yl)-2-cyano-3,4-dihydroxytetrahydrofuran-2-yl)methyl ((R)-2-((3-cyano-5-fluorobenzyl)oxy)docosyl) hydrogen phosphate]	> 43200	276	316	281	1890
CCCCCCCCCCCCCCCCC[C@H](COP(=O)(O)OC[C@@]1(C#N)O[C@@H](c2ccc3c(N)ncnn23)[C@H](O)[C@@H]1O)OCc1cc(F)cc(C#N)c1 [Compound 36, ((2R,3S,4R,5S)-5-(4-aminopyrrolo[2,1-f][1,2,4]triazin-7-yl)-2-cyano-3,4-dihydroxytetrahydrofuran-2-yl)methyl ((R)-2-((3-cyano-5-fluorobenzyl)oxy)nonadecyl) hydrogen phosphate]	> 50000	113	112	102	353
CCCCCCCCCCCCCCCCCC[C@@H](COP(=O)(O)OC[C@@]1(C#N)O[C@@H](c2ccc3c(N)ncnn23)[C@H](O)[C@@H]1O)OCc1cc(F)cc(C#N)c1 [Compound 37, ((2R,3S,4R)-5-(4-aminopyrrolo[2,1-f][1,2,4]triazin-7-yl)-2-cyano-3,4-dihydroxytetrahydrofuran-2-yl)methyl ((S)-2-((3-cyano-5-fluorobenzyl)oxy)icosyl) hydrogen phosphate]	> 38100	183	249	332	1240
CCCCCCCCCCCCCCCCCCC[C@H](COP(=O)(O)OC[C@@]1(C#N)O[C@@H](c2ccc3c(N)ncnn23)[C@H](O)[C@@H]1O)Oc1ccc(C#N)c(OC(C)C)c1 [Compound 38, ((2R,3S,4R,5S)-5-(4-aminopyrrolo[2,1-f][1,2,4]triazin-7-yl)-2-cyano-3,4-dihydroxytetrahydrofuran-2-yl)methyl ((R)-2-(4-cyano-3-isopropoxyphenoxy)henicosyl) hydrogen phosphate]	35300	28	29	12	212
